Counter-ions that a name gives are not always drawn.
Tests used:
[1] = tested on: gastric acid secretion; test: Gastric anti-secretion activity, pylorus-ligated rat (Shay method); type: in vivo; details: intraduodenal, male Sprague Dawley rats, pylorus ligature, 4 hours
Description: The gastric anti-secretion activity of the compounds of the invention was tested according to the method described by Shay et al. (H. Shay, D. C. Sun, M. Gruenstein, Gastroenterology, 26, 906 [1954]). Thus, male Sprague Dawley rats weighing around 200 g with free access to water are made to fast 24 hours before the experiments. Ligatures are made on the pylora under ether anesthesia and the medications to be tested are simultaneously administered either by the intraperitoneal route (i.p.) or by intraduodenal route (i.d.). The abdomen is closed again and the animals are sacrificed after four hours. The gastric secretion is recovered and centrifuged at 1,500 g for 15 minutes; the volume of the supernatant is measured and the acidity is determined by automatic titration of 0.05 N sodium hydroxide. A control group is included for each experiment.
The dose necessery for 50% inhibition (ED50) of the acid secretion (X concentration of hydrochloric acid by volume) is calculated using the method described by Litchfield and Wilcoxon (J. T. Litchfield, F. A. Wilcoxon, J. Pharmacol., 96, 99 [1949]). The results obtained for compounds pounds representative of the invention are given in Table 3 and compared with the clinically used reference compounds: Pirenzepine (anti-cholinergic), Ranitidine (antagonist of histaminergic H2 receptors) and Omeprazole (proton pump inhibitor).

[2] = tested on: vomiting induced by cis-platinum; test: Anti-emetic activity: inhibition of vomiting induced by cis-platinum in ferrets; type: in vivo, ferret; details: 30 minutes before cis-platinum 30 mg/kg i.v., ferrets observed six hours
Description: Inhibition induced by cis-platinum is evaluated in ferrets using a modification of the protocol described by Barnes et al. (J. M. Barnes, N. M. Barnes, B. Costall, R. J. Naylor, F. D. Tattersall, Neuropharmacology, 27[8], 783 [1988]). Thus, albino ferrets or European polecats of both sexes weighing between 0.5 kg and 1.5 kg are put under anesthesia with pentobarbitone (30-40 mg/kg i.p.) and a polyethylene injection tube is inserted into the left jugular vein. Two days later, the compounds being tested are administered i.v. 30 minutes before cis-platinum (30 mg/kg i.v.). The animals are observed for six hours and the number of vomitings is recorded. A control group is included for each experiment.

[3] = biological target: T1, 5-HT1A receptor (Rattus norvegicus, UniProt P19327); test: Affinity for the 5-HT1A receptor: inhibition of [3H]8-OH-DPAT binding to rat cerebral cortex membranes; details: [3H]8-OH-DPAT 1 nM, 30 min at 25 deg. C.
T1 construct: Rat cerebral cortex membranes (10 mg by weight, moistened, per ml) are incubated with [3H]8-OH-DPAT (1 nM); from tissue; host or cells: rat cerebral cortex membranes (male Sprague Dawley rats)
T1 sequence (P19327 1-422): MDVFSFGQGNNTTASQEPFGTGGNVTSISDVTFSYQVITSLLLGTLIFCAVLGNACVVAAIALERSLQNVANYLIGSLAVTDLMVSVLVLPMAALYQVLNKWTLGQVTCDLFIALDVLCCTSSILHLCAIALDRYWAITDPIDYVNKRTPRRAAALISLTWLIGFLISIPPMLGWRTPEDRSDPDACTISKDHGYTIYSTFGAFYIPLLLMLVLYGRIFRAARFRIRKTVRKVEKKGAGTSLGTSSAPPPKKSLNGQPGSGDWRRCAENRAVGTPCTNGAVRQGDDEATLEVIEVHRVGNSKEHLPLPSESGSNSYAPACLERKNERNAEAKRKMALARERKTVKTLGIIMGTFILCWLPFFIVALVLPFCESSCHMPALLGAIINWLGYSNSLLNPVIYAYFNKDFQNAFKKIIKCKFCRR
Description: The affinity of the compounds for the 5-HT1A serotonergic receptors is determined by measuring the inhibition of [3H]8-hydroxy-2 (di-n-propylamino) tetralin([3H]8-OH-DPAT) connected with the cerebral cortex of the rat according to the method of Perutka et al. (J. Neurochem., 47,529 [1986]).
Cerebral cortices of male Sprague Dawley rats are homogenized in 50 mM Tris-HCl, pH—7.4, and centrifuged at 40,000 g for 10 min. at 4 degrees C. Pellets are put into suspension in the same buffer and incubated for 10 min. at 37 degrees C. and the homogenates are again centrifuged at 40,000 g for 10 min. at 4 degrees C.
Competitive inhibition tests of the bond of [3H]8-OH-DAPT are performed three times with unmarked competitors with concentrations ranging between 100 pM and 100 μM. Rat cerebral cortex membranes (10 mg by weight, moistened, per ml) are incubated with [3H]8-OH-DPAT (1 nM) for 30 min. at 25 deg. C. in Tris-HCl 50 mM, pH 7.4 comprising 4 mM of CaCl2, 10 μM of pargylin and 0.1% ascorbic acid.
The bonded [3H]8-OH-DPAT is separated from the free [3H]8-OH-DPAT by immediate filtration by means of Whatman GF/B fiberglass filters using a Brandel cell recoverer. The filters [filtrates?] are washed three times with the same buffer at 0-4 deg. C. and their radioactivity is determined by means of a liquid scintillation spectrometer.
The specific bond is obtained by subtracting the given bond in the presence of 1 μM of 8-OH-DPAT from the total bond. The bond characteristics are analyzed by interactive analysis of the nonlinear regression by computer using the Ligand program (Munson and Rodbard, Anal. Biochem., 107, 220 [1980]).

[4] = tested on: intestinal transit; test: Effect on intestinal transit (charcoal meal) in rats; type: in vivo, rat; details: 30 minutes before charcoal, sacrificed after 15 minutes
Description: A compound of the invention was tested to determine its effect on the intestinal transit according to the method described by A. F. Green (Br. J. Pharmacol., 14, 26-34 [1959]). To male Sprague Dawley rats weighing approximately 200 g before being made to fast, there was administered (p.o.) a meal comprised of charcoal (10 g) and gum arabic (2.5 g) dissolved in 100 ml of distilled water. The animals were sacrificed after 15 minutes and the charcoal transit time was measured.
The product to be tested was administered (s.c.) 30 minutes before the administration of the charcoal.

[5] = tested on: gastric emptying; test: Effect on gastric emptying (phenol red meal) in rats; type: in vivo, rat; details: sacrificed 15 minutes after phenol red meal
Description: A compound of the invention was tested for its effect on gastric emptying according to the method described by C. Scarpignato et al. (Arch. Int. Pharmacodyn., 246, 286-294 [1980]). Thus, 1.5 ml of a 1.5% methyl cellulose solution comprising phenol red (0.5 mg/ml) was administered orally to Sprague Dawley rats weighing approximately 200 g and previously subjected to fasting. The animals were sacrificed after 15 minutes and the pylora and the esophagi were tied off. The contents of the stomachs were collected in a teflon beaker containing a solution of soda (100 ml at 0.1 N) and the mixture was homogenized. The proteins were precipitated by addition of 0.5 ml of a 20% aqueous solution of trifluoroacetic acid to a 5 ml portion of homogenate. After centrifuging, the part of the solution rising to the top was separated and added to 4.5 ml of an aqueous solution of soda at 0.5 N and the phenol red content was determined by using a spectrophotometer at a wavelength of 560 nm.
The compound to be tested was administered (s.c.) 15 minutes […] the administration of phenol red.

Compound	melting point [°C]	Ki [3] [pM]	also measured
COc1cccc(C(=O)NCCCCNCCOc2ccccc2OC)c1 (as salt: fumarate) [compound 14]	68 to 70	–	–
COc1ccccc1OCCNCCCCNC(=O)CC(C)(C)C (as salt: fumarate) [compound 33]	130 to 132	–	–
COc1ccccc1OCCNCCCCNC(=O)C1CCCCC1 (as salt: fumarate) [compound 34, N[4-{2-(2-methoxyphenoxy)ethyl}aminobutyl]cyclohexylamide]	134 to 136	–	–
COc1ccccc1OCCNCCCCNC(=O)C1(C)CCCCC1 (as salt: fumarate) [compound 45]	120 to 122	–	–
COc1ccccc1OCCNCCCCNC(=O)C1CCCCCC1 (as salt: fumarate) [compound 46, N[4-{2-(2-methoxyphenoxy)ethyl}aminobutyl]cycloheptylamide]	125 to 126	–	–
COc1ccccc1OCCNCCCCNC(=O)C1CC2CCC1C2 (stereo not drawn) (as salt: fumarate) [compound 50, N[4-{2-(2-methoxyphenoxy)ethyl}aminobutyl]2-bicyclo[2,2,1]heptylamide]	130 to 131	–	–
COc1ccccc1OCCNCCCCNC(=O)CC1CCCC1 (as salt: fumarate) [compound 59]	118 to 119	–	–
CCOc1ccccc1OCCNCCCCNC(=O)C(C)(C)C (as salt: fumarate) [compound 64]	131.5 to 133	–	–
COc1ccccc1OCCNCCCCNC(=O)c1ccccn1 (as salt: salt) [compound 3]	152 to 154	–	–
COc1ccccc1OCCNCCCCNC(=O)c1ccc(F)cc1 (as salt: salt) [compound 23]	119 to 120.5	–	–
COc1ccccc1OCCNCCCCNC(=O)c1cccc(I)c1 (as salt: salt) [compound 30]	121 to 121.5	–	–
COc1ccccc1OCCNCCCCNC(=O)c1ccccc1 [Compound No. 1, N-[4-{2-(2-Methoxyphenoxy)ethyl}aminobutyl]benzamide]	–	200	ED50 (dose necessary for 50% inhibition of the acid secretion) [1]: 3.7 mg/kg i.d.; Percent Inhibition (vomiting) ([2]; 1.0 mg/kg iv): 40%
COc1ccccc1OCCNCCCCNC(=O)C12CC3CC(CC(C3)C1)C2 [Compound No. 2, N-[4-{-2-(2-Methoxyphenoxy)ethyl}aminobutyl]-1-adamantamide]	–	100	ED50 (dose necessary for 50% inhibition of the acid secretion) [1]: 3.6 mg/kg i.d.
CNC(=O)c1ccccc1OCCNCCCCNC(=O)c1ccccc1 [Compound No. 18]	–	–	ED50 (dose necessary for 50% inhibition of the acid secretion) [1]: 3.2 mg/kg i.d.; Percent Inhibition (vomiting) ([2]; 1.0 mg/kg iv): 62%; Charcoal Transit Time Compared to Control ([4]; 0.3 mg/kg s.c.): +16%; Charcoal Transit Time Compared to Control ([4]; 1.0 mg/kg s.c.): +20%; Effect on Gastric Emptying Time Compared to Control ([5]; 0.3 mg/kg s.c.): +8%; Effect on Gastric Emptying Time Compared to Control ([5]; 1.0 mg/kg s.c.): +18%; Effect on Gastric Emptying Time Compared to Control ([5]; 3.0 mg/kg s.c.): +26%
CCN(CC)CCNC(=O)c1cc(Cl)c(N)cc1OC [Metoclopramide, reference compound]	–	–	Percent Inhibition (vomiting) ([2]; 1.0 mg/kg iv): 15%
COc1ccc2[nH]c([S+]([O-])Cc3ncc(C)c(OC)c3C)nc2c1 (stereo not drawn) [Omeprazole, reference compound]	–	–	ED50 (dose necessary for 50% inhibition of the acid secretion) [1]: 4.6 mg/kg i.d.

Compound	melting point [°C]	Ki [3] [pM]	also measured
Cc1nccn1CC1CCc2c(c3ccccc3n2C)C1=O (stereo not drawn) [Ondansetron, reference compound]	–	–	Percent Inhibition (vomiting) ([2]; 0.5 mg/kg iv): 62%
CN1CCN(CC(=O)N2c3ccccc3C(=O)Nc3cccnc32)CC1 [Pirenzepine, reference compound]	–	–	ED50 (dose necessary for 50% inhibition of the acid secretion) [1]: 14 mg/kg i.d.
CNC(=C[N+](=O)[O-])NCCSCc1ccc(CN(C)C)o1 [Ranitidine, reference compound]	–	–	ED50 (dose necessary for 50% inhibition of the acid secretion) [1]: 22 mg/kg i.d.
COc1ccccc1OCCNCCCCNC(=O)c1ccccn1 [compound 3]	–	1400	–
CSc1ccccc1OCCNCCCCNC(=O)c1ccccc1 [compound 11]	–	710	–
COc1cccc(C(=O)NCCCCNCCOc2ccccc2OC)c1 [compound 14]	–	1600	–
O=C(NCCCCNCCOc1ccccc1O)c1ccccc1 [compound 20, N[4-{2-(2-hydroxyphenoxy)ethyl}aminobutyl]benzamide]	–	230	ED50 (dose necessary for 50% inhibition of the acid secretion) [1]: 3.1 mg/kg i.d.
COc1ccccc1OCCNCCCCNC(=O)c1ccc(F)cc1 [compound 23]	–	330	–
COc1ccccc1OCCNCCCCNC(=O)c1cccc(I)c1 [compound 30]	–	440	–
COc1ccccc1OCCNCCCCNC(=O)CC(C)(C)C [compound 33]	–	330	–
COc1ccccc1OCCNCCCCNC(=O)C1CCCCC1 [compound 34, N[4-{2-(2-methoxyphenoxy)ethyl}aminobutyl]cyclohexylamide]	–	87	–
COc1ccccc1OCCNCCCCNC(=O)C1(C)CCCCC1 [compound 45]	–	140	–
COc1ccccc1OCCNCCCCNC(=O)C1CCCCCC1 [compound 46, N[4-{2-(2-methoxyphenoxy)ethyl}aminobutyl]cycloheptylamide]	–	94	–
COc1ccccc1OCCNCCCCNC(=O)C1CC2CCC1C2 (stereo not drawn) [compound 50, N[4-{2-(2-methoxyphenoxy)ethyl}aminobutyl]2-bicyclo[2,2,1]heptylamide]	–	71	–
COc1ccccc1OCCNCCCCNC(=O)CC1CCCC1 [compound 59]	–	650	–
CCOc1ccccc1OCCNCCCCNC(=O)C(C)(C)C [compound 64]	–	770	–

Source: US6670400B1, “Phenoxyethylamine derivatives having high affinity for the 5-HT1A receptor, preparation thereof, use thereof as drugs, and pharmaceutical compositions containing said derivatives” (Societe de Conseils de Recherches et D'Applications …, priority 1995, dated 2003)
